{"source": "ChEMBL document CHEMBL1147078", "about": "“Triptolide is a traditional Chinese medicine-derived inhibitor of polycystic kidney disease” (Proc Natl Acad Sci U S A, 2007)", "key": {"[1]": {"species": "Mus musculus", "assay": "Growth inhibition of PC2 expressing mouse Pkd2+/- cells as cell death at 100 nM after 24 hrs", "assay_type": "functional"}, "[2]": {"test_system": "Mus musculus", "assay": "Toxicity in C57BL/6 mouse embryos at >=0.1 mg/kg/day, ip", "assay_type": "organism-based", "settings": "in vivo"}, "[3]": {"test_system": "Mus musculus", "assay": "Toxicity in C57BL/6 mouse embryos at […], ip", "assay_type": "organism-based", "set-up": "route intraperitoneal", "settings": "in vivo"}, "[4]": {"species": "Mus musculus", "assay": "Increase in p21CIP/WAF expression in mouse Pkd1-/- cells at 100 nM after 96 hrs by Western blot analysis", "assay_type": "functional, cell-based"}, "[5]": {"species": "Mus musculus", "assay": "Increase in PC2 dependent calcium release in mouse Pkd1-/- cells at 100 nM", "assay_type": "functional, cell-based"}, "[6]": {"species": "Mus musculus", "assay": "Increase in PC2 dependent calcium release in mouse Pkd1+/- cells at 100 nM", "assay_type": "functional, cell-based"}, "[7]": {"assay": "Growth inhibition of PC2 reconstituted mouse Pkd2-/- cells assessed as cell death at 100 nM after 24 hrs", "assay_type": "functional", "set-up": "scale not given: the % may be the effect or the level left"}, "[8]": {"species": "Mus musculus", "assay": "Increase in calcium release in mouse Pkd2-/- cells at 100 nM", "assay_type": "functional, cell-based"}, "[9]": {"test_system": "Pkd", "assay": "Increase in calcium response in mouse Pkd cells at […]", "assay_type": "functional, cell-based"}, "[10]": {"assay": "Growth inhibition of mouse Pkd2-/- PC2-null cells assessed as cell viability at 100 nM after 24 hrs", "assay_type": "functional", "settings": "read-out: Activity"}, "[11]": {"species": "Mus musculus", "assay": "Induction of cell growth arrest in mouse Pkd1-/- cells in presence of calcium", "assay_type": "functional, cell-based"}, "[12]": {"test_system": "Mus musculus", "assay": "Effect on Pkd1+/- and Pkd1+/- inter crossed mouse assessed as decrease in kidney cyst burden in […] genotypic embryos at 0.07 mg/kg, ip from E10.5 stage to untill birth relative to control", "assay_type": "functional, organism-based", "set-up": "dose 0.07 mg/kg"}, "[13]": {"species": "Mus musculus", "assay": "Increase in calcium release in mouse Pkd1-/- cells at 50 uM in presence of RyR antagonist dantrolene", "assay_type": "functional, cell-based"}, "[14]": {"assay": "Growth inhibition of mouse Pkd2-/- PC2-null cells assessed as cell death at 100 nM after 48 hrs", "assay_type": "functional", "set-up": "scale not given: the % may be the effect or the level left"}}, "note": "Activity calls are given as the source filed them. The calls are words filed in the database; no cut-off is given here.", "data": [{"smiles": "CC(C)[C@]12O[C@H]1[C@@H]1O[C@]13[C@]1(O[C@H]1C[C@H]1C4=C(CC[C@@]13C)C(=O)OC4)[C@@H]2O", "note": "[TRIPTOLIDE]", "values": [{"measurement": "Activity", "setting": "[1]", "result": "Active"}, {"measurement": "Activity", "setting": "[2]", "result": "Toxic"}, {"measurement": "Activity", "setting": "[3]", "result": "Non-toxic"}, {"measurement": "Activity", "setting": "[4]", "result": "Active"}, {"measurement": "Activity", "setting": "[5]", "result": "Active"}, {"measurement": "Activity", "setting": "[6]", "result": "Active"}, {"measurement": "Activity", "setting": "[7]", "result": ">80", "unit": "%"}, {"measurement": "Activity", "setting": "[8]", "result": "inactive"}, {"measurement": "Activity", "setting": "[9]", "result": "inactive"}, {"measurement": "viability at 0.1 µM", "setting": "[10]", "result": "> 90", "unit": "%"}, {"measurement": "Activity", "setting": "[11]", "result": "Active"}, {"measurement": "Activity", "setting": "[12]", "result": "Active"}, {"measurement": "Activity", "setting": "[13]", "result": "Active"}, {"measurement": "Activity", "setting": "[14]", "result": ">50", "unit": "%"}]}]}
